Data as given in patent publication US20030166004A1, “Endothelial-cell binding peptides for diagnosis and therapy” (priority 2001, published 2003).
Like-named read-outs stand apart in the source and are kept apart here. Ends that are not written are not given here. * marks the point of attachment. Biotin = O=C1N[C@H]2[C@H](CS[C@H]2CCCCC(=O)*)N1

Legend:
[1] = test system: aortic smooth muscle cells (AoSMC)
From the text: (§1) We developed a cell-based saturation ligand binding assay to measure the specific binding of the isolated EC binding peptides to human microvascular endothelial cells (HMVEC) and aortic smooth muscle cells (AoSMC). This assay allows the determination of the relative binding affinities of the isolated EC binding peptides. The assay is based on the highly sensitive fluorescence enhancement technique DELFIA® and coated microtitration plates. In this assay the synthetic peptides labeled with biotin at their amino terminus are incubated with fixed target cells in microtiter plate format. After incubation, the excess, unbound peptides are removed and europium labeled streptavidin added to the plates. After the removal of excess streptavidin, the europium is released and its fluorescence is measured.
(§2) Saturation ligand binding experiments measure specific ligand binding at equilibrium at various concentrations of the ligand. Binding curves are analyzed to determine binding site or receptor number and affinity. This curve is known as a rectangular hyperbola, binding isotherm, or saturation binding curve. This curve is determined by the following equation: […]
(§3) Y is zero initially, and increases to a maximum plateau value, Bmax. This equation describes the equilibrium binding of a ligand to a receptor as a function of increasing ligand concentration. X is the concentration of the ligand, and Y is the specific binding. Kd is the equilibrium dissociation constant, expressed in the same units as the X-axis (concentration). When the drug concentration equals Kd, half the binding sites are occupied at equilibrium.
(§4) Streptavidin-Eu^3+ reagent (cat # 1244-105), reagent diluent (cat # 1244-111), and Enhancement Solution (cat # 1244-105) were purchased from Perkin Elmer-Wallac (Turku, Finland), and the plates were read on Wallac Victor counter. The binding constants were calculated using the method of nonlinear regression analysis with the Prizm software (GraphPad Software, Inc.).
(§5) The HMVEC (human microvascular endothelial cell) and aortic smooth muscle cells (AoSMC) cells were purchased from Clonetics (San Diego, Calif.) and maintained according to the specifications of the supplier. In these experiments the cultures were used from passages 5 and 6 only.
(§6) The cultured subconfluent cells were trypsinized and resuspended in the culture media according to Clonetics instructions. The diluted suspension was dispensed into a reagent reservoir with magnetic stirring bar. 50 μl of the cell suspension was dispensed into each well of the 96-well plate with the Multidrop while stirring the suspension. The seeding density was 5*10^3 cells/well. The plates are incubated at 37° C. in the atmosphere containing 5% CO2 for 48 hours.
(§7) The cells were then washed three times with TBS with 0.01%Tween20 (wash buffer) and fixed with 2% formalin solution for fifteen minutes at 20° C. The cells were subsequently washed three times with wash buffer. The nonspecific sites on the plates were blocked by 300 μl of Pierce Casein Blocker per well for two hours at 20° C.
(§8) The saturation binding assay was performed by adding 50μl of the biotinylated peptide per well at increasing concentrations. The concentration was ranging from 1 nM to 10 μM. All measurements were performed in triplicates. Peptide dilutions were prepared from 10 mM DMSO stocks in wash buffer. The plates were incubated for one hour at room temperature and subsequently washed five times with wash buffer using Titertek automatic plate washer to remove any unbound peptide. The biotinylated peptide bound to the cells was then allowed to react for thirty minutes with 50 μl of 2000× dilution of the streptavidin-Eu^3+ reagent, diluted in the Wallac reagent diluent. Finally, after washing the unbound streptavidin-Eu^3+ reagent, 50 μl of Wallac Enhancement Solution per well was added to release the free Eu^3+ from its chelate form. Free Eu^3+ rapidly forms a highly fluorescent stable chelate with the components of the Enhancement solution. […]

[2] = test system: human microvascular endothelial cells (HMVEC); details: Cell Type HMVEC; for Binding Affinity: equals Bmax/Kd; for Kd: fixed cells, biotinylated peptide 1 nM to 10 μM
From the text: as §1, §2, §3, §4, §5, §6, §7, §8

chicken aortic rings = assay: Aortic ring assay (chicken aortic rings in Matrigel, microvessel formation); format: cell-based; details: peptide 125 to 1000 μM, 2-3 days
From the text: The aortic ring assay is a widely used in vitro assay for angiogenesis. Typically, rat aortas are sliced crosswise and placed in Matrigel. After three to five days, microvessel sprouting can be roughly quantified by manual counting or by using image analysis. The aortic ring assay is low-cost, easy to use, and offers many assays from a single animal. A relatively new variant uses embryonic chick aortic arches (see Muthukkaruppan et al., Proceedings of the American Association for Cancer Research Annual Meeting, 2000).
In this experiment, chicken aortic rings are embedded in Matrigel (BD BioCoat™ Matrigel™ or other equivalent products) in optimized MCDB-131 media (Sigma product number: M8537, or equivalent products from other vendors). From endothelial cells (EC) in the aortic intima, a complex network of branching and anastomosing microvessels develop interspersed with fibroblast as individual cells. In this assay the ability of the identified EC-binding peptides is tested for their abilities to inhibit EC branching and microvessel formation.
Chicken aortic branches were dissected and cleaned from 15 day old chicken embryos, and were then rinsed well in cold PBS+Penicillin/Streptomycin (P/S) buffers. The arteries were then cut into about 1 mm rings using sterile razor blade, and the resulting rings were mounted in 10-20 μl of Matrigel (in a 48-well plate). Subsequently, 300 μl of MCDB-131 basal media+P/S containing the indicated amount of test peptide were added. The cultured rings were incubated at 37° C., with 5% CO2 for 2-3 days, and the extent of microvessel formation were evaluated as the end of the experiment.

[3] = test system: angiogenesis in Matrigel plug; assay: Mouse Matrigel plug assay (FGF-induced angiogenesis, hemoglobin content); format: in vivo; details: for inhibition of angiogenesis in the Matrigel plug assay (in words) / inhibition of angiogenesis: mouse Matrigel plug with FGF; for inhibition of angiogenesis: peptide in the plug versus FGF-only control plug, hemoglobin levels
Experimental: This assay takes advantage of the fact that Matrigel is liquid at 4° C. but becomes gel when warmed to 37° C. Thus when injected subcutaneously into the ventral region of a mouse, Matrigel solidifies and forms a so-called “Matrigel plug”. When angiogenic factors, such as FGF, are mixed with the Matrigel and injected, endothelial cells migrate into the gel plug and form functional vessels. The level of angiogenesis can then be assessed by measuring hemoglobin levels in the plugs, which are directly proportional to the extent of angiogenesis. Typically, two plugs are assayed in each mouse: one plug (control plug) contains FGF only and is used as control for angiogenesis, while the test plug contains FGF and an indicated amount of test peptide(s). In single-point assays, peptide concentration in the plug is 1 mM.
C57BL/6 female mice, 6-8 wks.
Basis FGF (bFGF) stock was prepared at 25 μg/ml in saline buffer +5% mouse serum albumin. The bFGF stock was added to Matrigel at 200 ng/ml. The mixture was left on ice for at least 3 hours before further use. For each mouse, 1 ml of such mixture was prepared, so that 0.5 ml of the mixture can be injected into each mouse to achieve about 100 ng/one side injection. If a test peptide were also to be added, for each mouse, 50 μl of 10 mM peptide (or 5 mM cRGD, positive control) was slowly added to Matrigel, swirling while adding. Per 5 mice, add 300 μl of peptide per 3 mls of Matrigel.
Syringes for injection were left on ice before injection. One syringe is used for each side of the group of 5 mice. About 1 ml of the mixture can be loaded at a time and injected into 2 mice using the Becton Dickinson 1 ml syringe for subcutaneous injection (26 gauge, ⅝ths, cat# 309597). Mice were anesthetized with isofluorane in a chamber, and were pulled out just as their breathing became slow. Injection were performed subcutaneously at inner thighs of the mice.
To determined the degree of angiogenesis, Matrigel plugs were dissected out, and placed in pre-weighed Falcon 5 ml snap-cap round bottomed tubes (polypropylene, Falcon cat# 352063). One ml of PBS was then added. The tubes were weighed with Matrigel plugs inside. The samples were kept at 4° C. until ready for hemoglobin assay.
Sonicate samples before measuring the hemoglobin content using the Plasma hemoglobin kit from Sigma.

Substance: Biotin-CDCRGDCFC-OH (cysteine pairing not given here) [reference compound]
- Bmax (counts/cell) ([1]; Cell Type AoSMC): 7.18 counts/cell
- Binding Affinity ([1]; Cell Type AoSMC, equals Bmax/Kd): 28.725
- Kd ([1]; Cell Type AoSMC, fixed cells, biotinylated peptide 1 nM to 10 μM): 250 nM

Substance: Biotin-GCDSHKRLKCG (cysteine pairing not given here) [9-G5]
- Binding Affinity [1]: −2.127
- Bmax (counts/cell) [1]: 2.937 counts/cell
- binding to AoSMC (in words) [1]: do not bind
- Bmax (counts/cell) [2]: 10.1138 counts/cell
- Binding Affinity [2]: 19.195
- Kd [2]: 527 nM
- inhibition of angiogenesis (microvessel formation) in the aortic ring assay (in words) (chicken aortic rings): tested positive
- inhibition of angiogenesis in the Matrigel plug assay (in words) [3]: tested positive

Substance: Biotin-GCHSSTWRACG (cysteine pairing not given here) [2-C10]
- Binding Affinity [1]: −5.709
- Bmax (counts/cell) [1]: 0.9694 counts/cell
- binding to AoSMC (in words) [1]: do not bind
- Bmax (counts/cell) [2]: 8.79 counts/cell
- Binding Affinity [2]: 3.83
- Kd [2]: 2290 nM
- inhibition of angiogenesis (microvessel formation) in the aortic ring assay (in words) (chicken aortic rings): tested positive
- inhibition of angiogenesis in the Matrigel plug assay (in words) [3]: tested positive

Substance: Biotin-GCMNQHSSACG (cysteine pairing not given here) [3-B5]
- Binding Affinity [1]: 85.24
- Bmax (counts/cell) [1]: 8.354 counts/cell
- Kd [1]: 98 nM
- Bmax (counts/cell) [2]: 3.817 counts/cell
- Binding Affinity [2]: 394.75
- Kd [2]: 9.7 nM

Substance: Biotin-GCPTPHSGTCG (cysteine pairing not given here) [2-G9]
- Binding Affinity [1]: 57.639
- Bmax (counts/cell) [1]: 8.519 counts/cell
- Kd [1]: 148 nM
- Bmax (counts/cell) [2]: 5.15 counts/cell
- Binding Affinity [2]: 166.12
- Kd [2]: 31 nM
- inhibition of angiogenesis (microvessel formation) in the aortic ring assay (in words) (chicken aortic rings): tested positive
- inhibition of angiogenesis in the Matrigel plug assay (in words) [3]: tested positive
- inhibition of angiogenesis [3]: 57%

Substance: Biotin-GCTQMRTAYCG (cysteine pairing not given here) [7-D5]
- Binding Affinity [1]: 28.211
- Bmax (counts/cell) [1]: 10.8332 counts/cell
- Kd [1]: 384 nM
- binding to smooth muscle cells compared with endothelial cells [1]: binds better to smooth muscle cells than to endothelial cells
- Bmax (counts/cell) [2]: 11.0211 counts/cell
- Binding Affinity [2]: 2.3116
- Kd [2]: 4770 nM

Substance: HTKQIPRHIYSA [1-H5]
- inhibition of angiogenesis (microvessel formation) in the aortic ring assay (in words) (chicken aortic rings): tested positive
- inhibition of angiogenesis in the Matrigel plug assay (in words) [3]: tested positive
- inhibition of angiogenesis [3]: 44%
- dose dependence of inhibition of angiogenesis ([3]; mouse Matrigel plug, three concentrations, n no less than 9): linearly proportional to the concentration

Substance: cRGD [reference compound]
- inhibition of angiogenesis [3]: 36%
